According to publication PMC2881055, “Endocytic pathways mediating oligomeric Aβ42 neurotoxicity” (Molecular Neurodegeneration, 2010):

Columns and labels:
N2A cells [1] = tested on: N2A cells
Experimental: Mouse neuroblastoma, N2A cells (ATCC) were maintained in MEM (ATCC) supplemented with 10% FBS, 2 mM L-glutamine, 100 U/ml of penicillin, 100 ug/ml of streptomycin, as previously described. 5000 cells per well were plated on to 96-well plates 24 hours prior to treatment to allow attachment. Cells were then treated […] oAβ42 in DMEM medium without phenol red and with 1% N2 supplement (Invitrogen). At the end of the experiment (24 hours post-treatment), cell viability was assessed by relative cellular ATP levels using CellTiter-Glo assay kit (Promega) according to the manufacture's instruction. Statistical significance was established at p < 0.01 by One-way ANOVA with Tukey test for comparison in different groups.
N2A cells were treated with pharmacological inhibitors that block specific steps during endocytosis. […] Chlorpromazine (2 mM), genistein ([…]), PP2 (1 mM) were added to cell cultures at indicated concentrations 1 hr before oAβ42 treatment in DMEM with 1% N2 supplement. The final concentration of vehicle (DMSO) was 0.05% in all cultures.

N2A cells [2] = experiment: oAβ42-induced neurotoxicity in N2A cells, with inhibitor or siRNA (CellTiter-Glo ATP assay); assay type: cell-based, mouse; design: effect on Aβ42 toxicity: dose or concentration left out as unconfirmed
Experimental: Small interfering RNA (siRNA) for the clathrin heavy chain (CLTC, SMARTpool L-004001-00-0005) and control Non-Targeting siRNA were purchased from Dharmacon. Cells were transfected at 20 pmol siRNA in 24-well culture plates using LipofectAmine 2000 according to vendor's recommended transfection protocol. A second transfection was done the next day. These transfected cells were then split and seeded on to 96-well plate in MEM with 10% FBS. 48 hours post-transfection, these cells were treated with oAβ42 for 24 hours.

neuroblastoma cell line = tested on: neuroblastoma cell line; design: method as in PMID 3796890; conditions: cited from earlier work
N2A cells [3] = tested on: N2A cells; design: lethality to N2A cells: dose or concentration left out as unconfirmed; conditions: cited from earlier work
SH-SY5Y cells = conditions: cited from earlier work
Source text: (§1) Dynamin mediates both clathrin-dependent and -independent endocytosis (for review, [76]). We first used two pharmacological inhibitors to block the dynamin-dependent endocytic pathway, genistein (a general tyrosine kinase inhibitor) and PP2 (a Src family tyrosine kinase inhibitor). […] The result was consistent with previous reports that this agent protected from Aβ induced toxicity in cultured hippocampal neurons and SH-SY5Y cells.

[4] = tested on: cultured hippocampal neurons; conditions: cited from earlier work
Source text: as §1

N2A cells [5] = conditions: co-cultures of primary neurons and glia, and Neuro-2A cells (N2A); cited from earlier work
Source text: Here we focus mainly on endocytic pathways in relation to oAβ42 toxicity in N2A cells.

Compound: CN(C)CCCN1c2ccccc2Sc2ccc(Cl)cc21 [chlorpromazine]
- toxicity to N2A cells (N2A cells [1]): toxic
- cell viability retained (N2A cells [1]; N2A cells, 2 mM chlorpromazine, ATP-based CellTiter-Glo): 90%
- effect on oAβ42 neurotoxicity (N2A cells [2]; 2 mM chlorpromazine added 1 hr before oAβ42, 24 hours, data not shown): failed to block
- effect on cells at higher concentration (neuroblastoma cell line; 10^-4-10^-3 M): killed cells
- effect on Ca++-mediated toxicity at lower concentration (neuroblastoma cell line; 10^-6-10^-5 M): inhibited Ca^++-mediated toxicity

Compound: CC(C)(C)n1nc(-c2ccc(Cl)cc2)c2c(N)ncnc21 [PP2]
- effect on Aβ42 toxicity (N2A cells [2]; PP2 pre-treatment 1 hr before oAβ42, 24 hours, data not shown): decreased Aβ42 toxicity though to a lesser extent than genistein
- lethality to N2A cells (N2A cells [3]): lethal

Compound: O=c1c(-c2ccc(O)cc2)coc2cc(O)cc(O)c12 [genistein]
- effect on oAβ42-induced toxicity (N2A cells [2]; pre-treated with 10 mM genistein for 1 hour, 10 μM oAβ42 for 24 hours, p < 0.01): significantly inhibited
- protection from Aβ induced toxicity (SH-SY5Y cells): protected
- protection from Aβ induced toxicity [4]: protected
- IC50 (N2A cells [3]; read-out: IC50, inhibition of growth of N2A cells, dose-dependent): 18 µM

Compound: oAβ42: Oligomer preparation of recombinant Aβ42 (rPeptide), formed in DMSO/Ham's F12 at 4°C for 24 hours
- neurotoxicity of the oAβ42 preparation (N2A cells [5]): causes neurotoxicity
